Results taken from patent publication US8097652B2, “AMPA receptor potentiators” (Eli Lilly and Company, priority 2006, dated 2012).

Target: T1, human iGluR4 (Homo sapiens, UniProt P48058)
T1 construct: expressed in transfected cells
Test: Whole-cell voltage clamp electrophysiology of AMPA receptor potentiation in HEK293 cells expressing human iGluR4
Type: cell-based
Conditions: HEK293 cells stably expressing human iGluR4; voltage-clamped at −60 mV; 1 mM glutamate; fit to Hill equation; read-out: activity (EC50 value, potency of potentiation of the current evoked by glutamate)
Excerpt: HEK293 cells stably expressing human iGluR4 (obtained as described in European Patent Application Publication No. EP-A1-0583917) are used in the electrophysiological characterization of AMPA receptor potentiators. The extracellular recording solution contains (in mM): 140 NaCl, 5 KCl, 10 HEPES, 1 MgCl2, 2 CaCl2, 10 glucose, pH=7.4 with NaOH, 295 mOsm kg-1. The intracellular recording solution contains (in mM): 140 CsCl, 1 MgCl2, 10 HEPES, (N-[2-hydroxyethyl]piperazine-N1-[2-ethanesulfonic acid]) 10 EGTA (ethylene-bis(oxyethylene-nitrilo)tetraacetic acid), pH=7.2 with CsOH, 295 mOsm kg-1. With these solutions, recording pipettes have a resistance of 2-3 MΩ. […] Responses to 1 mM glutamate are then determined in the presence of test compound. […]
In order to determine the potency of the test compound, the concentration of the test compound, both in the bathing solution and co-applied with glutamate, is increased in half log units until the maximum effect is seen. […] Reversibility of test compound activity is determined by assessing control glutamate 1 mM responses. Once the control responses to the glutamate challenge are re-established, the potentiation of these responses by 100 μM cyclothiazide is determined by its inclusion in both the bathing solution and the glutamate-containing solution. In this manner, the efficacy of the test compound relative to that of cyclothiazide can be determined. […]

T1 sequence (P48058 22-902 limits assumed): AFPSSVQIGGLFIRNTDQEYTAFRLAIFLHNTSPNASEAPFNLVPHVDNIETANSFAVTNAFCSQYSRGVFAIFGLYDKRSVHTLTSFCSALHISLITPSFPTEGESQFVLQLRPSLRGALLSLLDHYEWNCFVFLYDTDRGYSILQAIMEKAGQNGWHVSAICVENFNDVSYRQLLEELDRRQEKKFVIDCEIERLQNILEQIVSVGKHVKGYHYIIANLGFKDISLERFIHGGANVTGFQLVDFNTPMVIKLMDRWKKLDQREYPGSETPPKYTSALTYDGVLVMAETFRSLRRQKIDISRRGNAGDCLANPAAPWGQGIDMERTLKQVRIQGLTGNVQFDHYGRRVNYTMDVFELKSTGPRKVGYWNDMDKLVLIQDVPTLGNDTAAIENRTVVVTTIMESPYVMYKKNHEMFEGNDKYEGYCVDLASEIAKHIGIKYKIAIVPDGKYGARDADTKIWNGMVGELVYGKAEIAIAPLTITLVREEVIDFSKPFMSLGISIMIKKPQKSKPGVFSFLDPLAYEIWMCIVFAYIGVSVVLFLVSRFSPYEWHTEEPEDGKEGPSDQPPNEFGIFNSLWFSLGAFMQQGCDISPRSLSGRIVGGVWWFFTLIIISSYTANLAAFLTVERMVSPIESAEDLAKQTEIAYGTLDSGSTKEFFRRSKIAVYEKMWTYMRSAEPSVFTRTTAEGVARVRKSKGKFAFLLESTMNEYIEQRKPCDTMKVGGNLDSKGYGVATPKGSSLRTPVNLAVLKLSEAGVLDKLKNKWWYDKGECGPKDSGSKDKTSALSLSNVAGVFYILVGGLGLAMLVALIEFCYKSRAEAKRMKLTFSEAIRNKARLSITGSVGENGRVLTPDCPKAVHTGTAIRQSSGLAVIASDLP

CC(C)S(=O)(=O)NC[C@H](C)c1ccc(-c2ccc(C(=O)O)cc2C#N)cc1 [Example 1, 1-(R)-2-Cyano-4′-[1-methyl-2-(propane-2-sulfonylamino)-ethyl]-biphenyl-4-carboxylic acid]
EC50: 188 ± 15.3 nM
